Experimental data published in PMC12000511, “Molecular basis for the assembly of the Vps5-Vps17 SNX-BAR proteins with Retromer” (Nature Communications, 2025).
Where no end group is shown, it is not given here.

Columns and labels:
[1] = biological target: T1, mVps29 (Mus musculus, UniProt Q9QZ88); experiment: Crystal structure of mVPS29–ctVps5_71–80 peptide complex; conditions: 1.7 Å, two molecules in asymmetric unit
T1 construct: GST (thrombin site) (N, cleaved yes); made in house; host or cells: E. coli BL21(DE3)
Protocol: All crystals were grown by the hanging-drop vapor diffusion method at 20 °C. […] Best quality crystals were obtained by mixing 1 µL of protein with 1 µL of well solution containing 40 mM KH2PO4, 16% PEG8000 and 5% glycerol at room temperature. Crystals grew after 13 days were cryoprotected in reservoir solution with additional 16% glycerol. X-ray diffraction data were carried out at the Australian Synchrotron MX2 beamline at 100 K.
Data collected from the Australian Synchrotron were indexed and integrated by AutoXDS and scaled using Aimless (version 0.7.4)[75]. Both structures were solved by molecular replacement using Phaser (version 2.5.6)[76] with native mVps29 structure as the initial model template. Both structures contain two copies of mVps29 in asymmetric unit with the electron density of peptide clearly visible. The refinement was performed using Phenix (version 1.19.2) with inspection of resulting model in Coot (version 0.8.9.2) guided by Fo–Fc difference maps[77]. Molprobity was used to evaluate the quality geometry of the refined structure. Molecular figures were generated using PyMOL (version 2.5.5) and structural comparison was performed using DALI and Foldseek[79],[80]. Sequence conservation was mapped on the structure with ConSurf server.

[2] = biological target: ctRetromer (Thermochaetoides thermophila, UniProt G0RZB5+G0S709); experiment: ITC, binding to ctRetromer; design: species or system Chaetomium thermophilum; conditions: ITC 25 °C, pH 7.5, 200 mM NaCl
Protocol: (§1) All the bacterial constructs were expressed in BL21(DE3) competent cells using standard isopropyl 1-thio-β-D-galactopyranoside induction or autoinduction method as described previously[39],[72],[73]. To obtain the Retromer trimer complex, the GST-tagged Vps29 and Vps35 co-expressed cell pellet were mixed with His-Vps26 and resuspended in lysis buffer containing 50 mM Tris-HCl pH 7.5, 200 mM NaCl, 5% glycerol, 50 μg/ml benzamidine and DNase I before passed through a Constant System TS-Series cell disruptor. […] For all constructs, the lysate was clarified by centrifugation and the supernatant was loaded onto either Talon® resin (Clonetech) or glutathione sepharose (GE healthcare) for initial purification. To obtain the correct stoichiometry ratio of the Retromer complex, both Talon® resin and glutathione sepharose (GE healthcare) were applied. […] The flow-through containing complex was further purified using size-exclusion chromatography (SEC) equilibrated with a buffer containing 50 mM Tris-HCl pH 7.5, 200 mM NaCl, 2 mM β-ME. […] To avoid the non-specific cleavage by the residual proteases such as thrombin, a tablet of protease inhibitor cocktail was added into the complex mixture. To remove the unbound fractions, the complex mixture was further purified using Superose 6 increase 10/300 GL column using the SEC buffer described above.
In brief, the clarified lysate was loaded onto glutathione sepharose (GE healthcare) and eluted using elution buffer containing 50 mM Tris-HCl pH 7.5, 200 mM NaCl, 5% glycerol, 20 mM glutathione reduced and 50 μg/ml benzamidine. The flow-through was further purified using SEC as the final purification step. To avoid the degradation, the constructs containing N-terminal disordered parts of Vps5 and Vps17 were used in fresh and experiments were finished within 3 days after purification.
(§2) All the proteins used for ITC experiments were prepared in buffer containing 50 mM Tris-HCl pH 7.5, 200 mM NaCl, 2 mM β-ME. […] In all cases, the ITC titration sequence consisted of an initial 0.4 μl (not used in data processing) followed by 12 serial injections of 3.22 μl each with 180 s intervals. The resulting titration data were integrated with Malvern software package by fitting and normalized data to a single-site binding model, yielding the thermodynamic parameters Kd, ∆H, ∆G and −T∆S for all binding experiments. The stoichiometry was refined initially, and if the value was close to 1, then N was set to exactly 1.0 for calculation. Data presented are the mean of triplicate titrations for each experiment.

[3] = biological target: T1, mVps29; experiment: ITC, binding to mVps29; conditions: ITC 25 °C, pH 7.5; mean of triplicate titrations
Protocol: as §1, §2

ctRetromer, sequence (G0RZB5 entry or part of it): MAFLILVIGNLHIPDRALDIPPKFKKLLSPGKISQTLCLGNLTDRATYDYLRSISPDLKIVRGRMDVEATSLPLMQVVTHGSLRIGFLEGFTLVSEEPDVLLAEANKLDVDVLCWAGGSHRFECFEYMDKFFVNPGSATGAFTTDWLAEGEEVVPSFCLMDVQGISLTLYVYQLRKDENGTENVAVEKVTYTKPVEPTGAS
ctRetromer, sequence (G0S709 entry or part of it): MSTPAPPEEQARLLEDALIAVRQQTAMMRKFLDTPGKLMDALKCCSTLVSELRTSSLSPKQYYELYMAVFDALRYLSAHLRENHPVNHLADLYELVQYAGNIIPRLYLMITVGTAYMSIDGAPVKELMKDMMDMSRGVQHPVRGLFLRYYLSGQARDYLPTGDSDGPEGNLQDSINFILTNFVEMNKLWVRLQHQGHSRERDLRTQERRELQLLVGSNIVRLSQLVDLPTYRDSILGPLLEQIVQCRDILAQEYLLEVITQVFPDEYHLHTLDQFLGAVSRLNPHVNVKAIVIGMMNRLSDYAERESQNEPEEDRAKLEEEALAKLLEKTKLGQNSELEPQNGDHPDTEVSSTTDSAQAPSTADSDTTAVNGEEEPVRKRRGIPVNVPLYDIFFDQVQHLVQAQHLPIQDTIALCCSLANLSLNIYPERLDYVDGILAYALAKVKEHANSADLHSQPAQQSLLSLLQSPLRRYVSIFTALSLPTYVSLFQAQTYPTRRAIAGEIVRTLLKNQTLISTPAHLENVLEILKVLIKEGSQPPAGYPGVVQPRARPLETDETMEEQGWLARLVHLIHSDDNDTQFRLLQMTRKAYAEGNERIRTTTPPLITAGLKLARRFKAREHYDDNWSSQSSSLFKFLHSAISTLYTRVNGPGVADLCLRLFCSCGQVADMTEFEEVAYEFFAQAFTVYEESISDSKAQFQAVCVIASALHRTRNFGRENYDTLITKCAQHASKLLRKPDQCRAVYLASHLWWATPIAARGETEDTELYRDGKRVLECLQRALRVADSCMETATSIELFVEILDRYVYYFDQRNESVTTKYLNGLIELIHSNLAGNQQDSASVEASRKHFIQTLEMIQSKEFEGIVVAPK
ctRetromer, sequence (G0S0E6 entry or part of it, further chain): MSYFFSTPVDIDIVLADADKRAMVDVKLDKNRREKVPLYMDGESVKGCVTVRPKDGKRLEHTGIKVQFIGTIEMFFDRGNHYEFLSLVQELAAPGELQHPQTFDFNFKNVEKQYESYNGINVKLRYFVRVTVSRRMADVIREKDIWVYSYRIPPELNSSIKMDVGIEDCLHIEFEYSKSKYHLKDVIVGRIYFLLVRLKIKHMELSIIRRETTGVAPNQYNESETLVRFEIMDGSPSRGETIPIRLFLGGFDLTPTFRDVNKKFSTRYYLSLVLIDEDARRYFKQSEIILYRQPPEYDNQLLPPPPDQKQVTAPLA

**Q.** What does the source list for DDPLGPLGA [ctVps5_71–80 peptide]?
**A.** binding site on VPS29 [1]: binds to the conserved hydrophobic groove of VPS29; binding to ctRetromer [2]: very weak binding; ΔG [3]: -5.80 ± 0.10 kcal/mol; ΔH [3]: -8.00 ± 1.10 kcal/mol
